# Source: patent US20110130466A1 (priority 2009, published 2011)
# Like-named read-outs stand apart in the source and are kept apart here.
# How the values were obtained:
# [1] = system: PSP patients; settings: patient 5, after 6 months of treatment with rasagiline (FIG. 2)
# Method: (§1) The following clinical factors were analyzed: • 1. Patients and relatives received a protocol to document the frequency of falls. • 2. 12 of the patients were analyzed using posturographic measurements. • 3. Depression was evaluated using clinical criteria (DSM-IV). • 4. Eye movements were orthoptically evaluated (in some cases an electronystagmogram was performed). • 5. Dysarthria was investigated using the Bogenhausener dysarthria scale (BoDys) (ranges from 4=normal until 0=anarthria). • 6. Dysphagia was clinically documented and the introduction of a percutaneous feeding tube (PEG) was recorded. • 7. Incidence of pneumonia was recorded. • 8. Impulse control disorder and hallucinations were recorded. • 9. Possible side effects were recorded. • 10.
# [2] = system: animal models of closed head trauma; settings: global focal ischemia, MPTP-induced neurotoxicity, ALS transgenic model, 6-OHDA model; cited from earlier work
# [3] = system: Bcl-2 and Bcl-xL expression; settings: parallel to downregulation of pro-apoptotic Bad and Bax; Youdim et al. 2003; cited from earlier work
# [4] = system: apoptotic cell death initiated by mitochondria; settings: cell culture, Youdim et al. 2001; Akao et al. 2002; cited from earlier work
# [5] = system: patients with PSP; settings: 1 mg/day
# Method: A clinical trial is performed according to the following guidelines: [table]
# [6] = system: PSP patients; settings: for dysphagia, need for a PEG: PSP patients without PEG at initiation, observation phase; for frequency of falls, MW (mean): mean of documented PSP patients, baseline 23.059
# Method: Eight men and nine women were treated.
# as §1
# [7] = PSP patients, rasagiline 1 mg/day
smiles,measurement,setting,value
"C#CCN[C@@H]1CCc2ccccc21 [rasagiline, R(+)-N-propargyl-1-aminoindan]","posturographic measurement, before vs after treatment",[1],shows an improvement
same,neuroprotection,[2],Neuroprotection by rasagiline was achieved
same,expression of anti-apoptotic Bcl-2 and Bcl-xL,[3],induces increase
same,suppression of apoptotic cell death,[4],potently suppresses apoptotic cell death
same,reduction of the reported deterioration (PSPRS),"[5]; 1 year, vs reported mean yearly increase of 9.7",33%
same,"safety, gait disturbances and postural stability",[5]; posturographic measurement,safe and effective in reducing gait disturbances and in enhancing postural stability
same,"dysarthria, mean on the BoDys scale","[6]; 10 patients, during observation time, from a mean of 2.5±0.5, 4=normal, 0=anarthria",2.7±0.5
same,deaths during the observation time,"[6]; 17 PSP patients, patients 9 and 4, both after treatment had ended",Two patients died
same,"dysphagia, need for a PEG",[6],none of the other patients required a PEG
same,"dysphagia, need for a PEG",[6]; listed as Rasagiline,effective in improving or slowing progression of dysphagia
same,period of treatment in which the reduction of the frequency of falls mainly took place,[6]; [7],≤ 7 months
same,postural instability / number of falls (in words),[6]; [7],improvement in postural instability was evident within the first 7 months
same,postural instability / number of falls (in words),"[6]; PSP patients, rasagiline 1 mg/day, listed as Rasagiline",effective in reducing the number of falls
same,"frequency of falls, MW (mean)",[6]; 1 Month of rasagiline 1 mg/day,19.824 falls/week
same,"frequency of falls, MW (mean)",[6]; 2 Months of rasagiline 1 mg/day,20.692 falls/week
same,"frequency of falls, MW (mean)",[6]; 3 Months of rasagiline 1 mg/day,20.833 falls/week
same,"frequency of falls, MW (mean)",[6]; 4 Months of rasagiline 1 mg/day,20.667 falls/week
same,"frequency of falls, MW (mean)",[6]; 5 Months of rasagiline 1 mg/day,20.917 falls/week
same,"frequency of falls, MW (mean)",[6]; 6 Months of rasagiline 1 mg/day,19.923 falls/week
same,"frequency of falls, MW (mean)",[6]; 7 Months of rasagiline 1 mg/day,21.917 falls/week
same,"frequency of falls, MW (mean)",[6]; 8 Months of rasagiline 1 mg/day,23.5 falls/week
same,"frequency of falls, MW (mean)",[6]; 9 Months of rasagiline 1 mg/day,22.818 falls/week
same,"frequency of falls, MW (mean)",[6]; 10 Months of rasagiline 1 mg/day,25.1 falls/week
same,"frequency of falls, MW (mean)",[6]; 11 Months of rasagiline 1 mg/day,25.889 falls/week
same,"frequency of falls, MW (mean)",[6]; 12 Months of rasagiline 1 mg/day,24.6 falls/week
same,impulse control disorder,[6]; one patient with impulse control disorder at initiation,not influenced by treatment with rasagiline
same,treating physician's assessment of deaths and intracranial haemorrhage after fall,"[6]; patients 9, 4 and 12",not related to rasagiline
same,effect on eye movements,[6]; rasagiline 1 mg/day,No effect
same,depression during treatment,"[6]; rasagiline 1 mg/day, 12 months observation, listed as Rasagiline",effective in reducing or eliminating depression
same,reversibility of side effects after termination,[6]; three patients with side effects,completely reversible
